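Compound exposure: 48 hours, 5 concentrations, 96-well plates. At the GI50, growth is halved. TGI: total growth inhibition.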
Tests used:
Test in all cases: NCI anticancer screen, dose series, 48 h
HCC-2998 colon = system: HCC-2998 colon
HL-60(TB) leukemia = system: HL-60(TB) leukemia
SF-539 CNS = system: SF-539 CNS
UACC-62 melanoma = system: UACC-62 melanoma
NCI-H522 lung = system: NCI-H522 lung
SN12C renal = system: SN12C renal
RXF 393 renal = system: RXF 393 renal
OVCAR-3 ovarian = system: OVCAR-3 ovarian
HCT-15 colon = system: HCT-15 colon
K-562 leukemia = system: K-562 leukemia

SMILES | TGI (HCC-2998 colon) [µM] | TGI (HL-60(TB) leukemia) [µM] | TGI (SF-539 CNS) [µM] | TGI (UACC-62 melanoma) [µM] | TGI (NCI-H522 lung) [µM] | TGI (SN12C renal) [µM] | TGI (RXF 393 renal) [µM] | TGI (OVCAR-3 ovarian) [µM] | TGI (HCT-15 colon) [µM] | GI50 (HCC-2998 colon) [µM] | GI50 (HL-60(TB) leukemia) [µM] | GI50 (SF-539 CNS) [µM] | GI50 (UACC-62 melanoma) [µM] | GI50 (NCI-H522 lung) [µM] | GI50 (K-562 leukemia) [µM] | TGI (K-562 leukemia) [µM] | GI50 (SN12C renal) [µM] | GI50 (RXF 393 renal) [µM] | GI50 (OVCAR-3 ovarian) [µM] | GI50 (HCT-15 colon) [µM]
COC(=O)C1C=CCC2CCCCC21N1CCCC1 (configuration not stated) | > 100 | 49.1 | > 100 | > 100 | > 100 | > 100 | > 100 | > 100 | > 100 |  |  |  |  |  |  |  |  |  |  | 
COc1ccc(-n2c(=S)sc3c(Cl)nc(C)nc32)c(OC)c1 | 31.1 | 5.83 | 4.55 | 4.69 | 3.89 | 9.14 | 4.07 | 3.26 | 5.43 | 16.2 | 1.43 | 2.07 | 2.06 | 1.84 | 1.19 | 3.79 | 2.85 | 2 | 1.8 | 1.96
N#C/C(=C\c1ccc2[nH]ccc2c1)C(=O)NCCCCNC(=O)/C(C#N)=C/c1ccc2[nH]ccc2c1 | > 31.6 | > 31.6 | > 31.6 | > 31.6 | > 31.6 | > 31.6 | > 10 | > 31.6 | > 31.6 |  |  |  |  |  |  | > 31.6 |  |  |  | 
COc1cc(N2C(=O)[C@H](Cl)C2c2ccc(SC)cc2)cc(OC)c1OC (some centres not stated) | > 100 | 0.703 | 0.163 | 91.5 | 0.263 | > 100 | > 100 | 0.089 | > 100 | 0.235 | 0.142 | 0.0307 | 0.0712 | 0.0299 | 0.0366 | > 100 | 0.348 | 0.0385 | 0.0294 | 0.047
O=C(CC1=Nc2nnc(CCCCCCCc3nnc4n3C(=O)C(CC(=O)c3ccc5ccccc5c3)=N4)n2C1=O)c1ccc2ccccc2c1 | > 100 | > 100 | > 100 | > 100 | > 100 | > 100 | > 100 | > 100 | > 100 |  |  |  |  |  |  | > 100 |  |  |  | 
Cc1cccc(C2NC(=O)c3ccccc3N2)c1 (configuration not stated) | > 100 | > 27.2 | 9.07 | > 100 | 46.1 | > 100 | > 23.7 | > 100 | > 100 |  |  |  |  |  |  |  |  |  |  | 
CN(C)C(=S)/N=c1\ss/c(=N\C(=S)N(C)C)n1-c1cccc(Cl)c1 | > 100 | > 100 | > 100 | > 100 | > 100 | > 100 | > 100 | > 100 | > 100 |  |  |  |  |  |  | > 100 |  |  |  | 
Cc1ccc(C2=CC(=O)c3ccccc3C2=O)n1-c1ccccc1 | > 100 | 94.2 | > 100 | > 100 | > 100 | > 100 | > 100 | > 100 |  |  |  |  |  |  |  | > 100 |  |  |  | 
N=C1CCCC1C(=S)SCCC(N)=O (configuration not stated) | > 100 | > 100 | > 100 | > 100 | > 100 | > 100 | > 100 | > 100 | > 100 |  |  |  |  |  |  |  |  |  |  | 
CCCCCCCC/C=C/CCCCCCCC1=NC(C)(C)CN1C(C)(C)CO | 3.04 | 5.5 | 3.34 | 3.47 | 3.7 | 6.67 | 3.99 | 3.13 |  | 1.65 | 2.23 | 1.68 | 1.82 | 1.83 | 2.12 | 5.48 | 2.25 | 2.17 | 1.74 | 
CCCC(=O)O[C@]1(C)CC[C@@H]2[C@H]3[C@@H]1[C@@H]1C[C@@](C)(O)[C@H](OC)CC[C@](C)(OC(=O)[C@@H]2C)[C@H]3O1 | 31.2 | 45.1 | > 100 |  | > 100 | 59.5 | 72.9 | 40 | > 100 | 17.5 | 21.2 | 71.7 |  | 32 | 14.4 | 27.5 | 24.8 | 23.2 | 16.9 | 47
Cn1c(I)c(C#C[Si](C)(C)C)c(=O)n(C(=O)c2ccccc2)c1=O | 21.6 | > 51.5 | 12.1 | 17 | 8.99 | 18.8 | 3.14 | 3.29 | 7.3 | 6.78 | 1.52 | 5.3 | 4.51 | 4.19 |  |  | 6.26 | 1.64 | 1.79 | 2.45
COC1(OC)C2(Cl)C3=CCCC=C3C1(Cl)C(Cl)=C2Cl | > 100 | 33.2 | > 100 | > 100 | 33 | > 100 | 47.8 | 43.8 | > 100 |  |  |  |  |  |  |  |  |  |  | 
C/C(=N/NC(=S)Nc1ccccc1)c1nc2ccc(Cl)cc2[nH]1 | 0.725 | 0.503 | 0.686 | 0.425 | 0.821 |  | 0.783 | 1.26 | 6.9 | 0.135 | 0.101 | 0.129 | 0.126 | 0.194 | 0.147 | 13.4 |  | 0.165 | 0.0777 | 0.0656

From PubChem BioAssay (NCI)
